From patent publication US20190085013A1, “NUCLEOTIDE AND NUCLEOSIDE THERAPEUTIC COMPOSITIONS AND USES RELATED THERETO” (EMORY UNIVERSITY, priority 2016, published 2019)

Key:
[1] = molecular target: NS5B-621 from HCV GT-1b Con-1 (Hepatitis C virus genotype 1b, UniProt Q9WMX2); assay: NS5B RNA-dependent RNA polymerase inhibition assay; type: biochemical; settings: 1 μM NTP substrates including either [32P]-CTP or [32P]-UTP, columns not distinguished
Description: Compounds were assayed for inhibition of NS5B-621 from HCV GT-1b Con-1. Reactions included purified recombinant enzyme, 1 u/μL negative-strand HCV IRES RNA template, and 1 μM NTP substrates including either [^32P]-CTP or [^32P]-UTP. Assay plates were incubated at 27° C. for 1 hour before quench. [^32P] incorporation into macromolecular product was assessed by filter binding.

[2] = tested on: HCV Replicon 1a-H77; assay: HCV replicon GT-1a luciferase assay; type: cell-based; settings: Hepatitis C virus, GT1A, GT-1a H77 replicon
[3] = tested on: HCV Replicon 1b-Con1; assay: HCV replicon GT-1b luciferase assay; type: cell-based; settings: Hepatitis C virus, GT1B, read-out: HCV Replicon 1b-Con1 EC50
Description: Cell Culture—The reporter cell line Huh-luc/neo-ET was obtained from Dr. Ralf Bartenschlager (Department of Molecular Virology, Hygiene Institute, University of Heidelberg, Germany) by ImQuest BioSciences through a specific licensing agreement. This cell line harbors the persistently replicating I389luc-ubi-neo/NS3-3′/ET replicon containing the firefly luciferase gene-ubiquitin-neomycin phosphotransferase fusion protein and EMCV IRES driven NS3-5B HCV coding sequences containing the ET tissue culture adaptive mutations (E1202G, Tl2081, and K1846T). A stock culture of the Huh-luc/neo-ET was expanded by culture in DMEM supplemented with I 0% FCS, 2 mM glutamine, penicillin ([…])/streptomycin (100 μg/mL) and I× nonessential amino acids plus 1 mg/mL G418. The cells were split 1:4 and cultured for two passages in the same media plus 250 μg/mL G418. […] 5% C02 then anti-HCV activity was measured by luciferase endpoint. […]
Measurement of Virus Replication-HCV replication from the replicon assay system was measured by luciferase activity using the britelite plus luminescence reporter gene kit according to the manufacturer's instructions (Perkin Elmer, Shelton, Conn.). […] The well contents were transferred to a white 96-well plate and luminescence was measured within 15 minutes using the Wallac 1450Microbeta Trilux liquid scintillation counter. […]

IC50 ([1]; first IC50 column) [nM] | IC50 ([1]; second IC50 column) [nM] | Compound | EC50 [2] [nM] | EC50 [3] [nM]
1000 | 13400 | O=c1ccn([C@@H]2O[C@H](COP(=O)(O)OP(=O)(O)OP(=O)(O)O)[C@@H](O)[C@]2(O)CF)c(=O)[nH]1 [DRIVE-0060] |  | 
 |  | CC(C)OC(=O)[C@H](C)N[P@](=O)(OC[C@H]1O[C@@H](n2ccc(=O)[nH]c2=O)[C@@](O)(CF)[C@@H]1O)Oc1ccccc1 [DRIVE-0087] | 540 | 750
